Reference: publication PMC7486275 (Nature, 2020)
Where two headings read alike, the source gives them in different places. Peptide text beside a SMILES is read from it. * marks the point of attachment. Cbz = O=C(OCc1ccccc1)*

Columns and labels:
CDK12-cycK and DDB1 = CDK12-cycK and DDB1 (Homo sapiens, UniProt Q16531+Q9NYV4, K965R); assay: TR-FRET titration of CDK12-Alexa488cycK to terbiumDDB1; conditions: vs basal binding in DMSO
[1] = target: CDK12-cycK complex by RBX1N8CUL4-DDB1 (Homo sapiens, UniProt Q16531+Q9NYV4, K965R); assay: In vitro ubiquitination assay; format: biochemical; conditions: 2 μM compound
[2] = target: cycKeGFP in HEK293TCas9 cells (Homo sapiens, UniProt Q16531+Q9NYV4); format: cell-based
[3] = test system: CycK in HEK293TCas9 cells; assay: Immunoblots of CycK degradation; format: cell-based, human; conditions: pre-treated with 0.5 μM MLN7243, 1 μM MLN4924 or 10 μM MG132 for 4 hours, then 1 μM CR8 for 2 hours
HEK293TCas9 cells = conditions: 3 days
[4] = test system: K562Cas9, OVK16Cas9, A564Cas9, ES2Cas9 and MOLM13Cas9 cell lines; assay: Validation of drug-E3 ligase pairs; format: cell-based; conditions: flow-based validation, 3 days

Sequence of CDK12-cycK complex by RBX1N8CUL4-DDB1 (Q15843 1-76): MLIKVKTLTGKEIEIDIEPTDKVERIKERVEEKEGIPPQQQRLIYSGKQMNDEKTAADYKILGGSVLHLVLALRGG
Sequence of CDK12-cycK complex by RBX1N8CUL4-DDB1 (Q16531 whole entry): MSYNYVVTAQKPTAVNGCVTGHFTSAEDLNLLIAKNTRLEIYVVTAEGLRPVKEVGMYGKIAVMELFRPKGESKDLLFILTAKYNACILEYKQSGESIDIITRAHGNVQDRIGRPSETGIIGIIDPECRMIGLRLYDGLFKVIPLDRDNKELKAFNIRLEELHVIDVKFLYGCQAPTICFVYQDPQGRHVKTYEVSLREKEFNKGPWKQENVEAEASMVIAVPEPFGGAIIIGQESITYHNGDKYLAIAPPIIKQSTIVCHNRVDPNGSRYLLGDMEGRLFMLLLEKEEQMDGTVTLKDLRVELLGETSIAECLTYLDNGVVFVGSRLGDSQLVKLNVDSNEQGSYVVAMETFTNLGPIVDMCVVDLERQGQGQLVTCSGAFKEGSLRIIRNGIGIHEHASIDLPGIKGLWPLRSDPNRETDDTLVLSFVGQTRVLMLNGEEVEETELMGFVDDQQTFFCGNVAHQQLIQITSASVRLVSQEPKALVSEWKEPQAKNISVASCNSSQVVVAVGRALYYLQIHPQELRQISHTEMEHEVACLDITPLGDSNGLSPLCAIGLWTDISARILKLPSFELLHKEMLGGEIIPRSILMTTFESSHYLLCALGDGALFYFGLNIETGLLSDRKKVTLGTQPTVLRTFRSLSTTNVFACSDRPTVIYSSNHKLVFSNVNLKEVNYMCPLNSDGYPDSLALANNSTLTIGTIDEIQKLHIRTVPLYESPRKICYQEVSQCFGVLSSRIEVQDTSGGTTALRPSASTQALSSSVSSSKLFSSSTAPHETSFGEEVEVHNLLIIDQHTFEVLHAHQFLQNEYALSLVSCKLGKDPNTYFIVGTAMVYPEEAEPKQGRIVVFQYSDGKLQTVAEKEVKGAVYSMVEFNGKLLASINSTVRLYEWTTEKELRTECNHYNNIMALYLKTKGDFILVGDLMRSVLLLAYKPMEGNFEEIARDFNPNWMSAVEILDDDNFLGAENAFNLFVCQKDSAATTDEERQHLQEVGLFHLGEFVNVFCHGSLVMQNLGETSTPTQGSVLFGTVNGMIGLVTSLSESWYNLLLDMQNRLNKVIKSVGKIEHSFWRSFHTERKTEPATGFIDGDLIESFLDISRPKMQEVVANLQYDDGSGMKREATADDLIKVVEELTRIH
Sequence of CDK12-cycK complex by RBX1N8CUL4-DDB1 (Q9NYV4 713-1052 K965R): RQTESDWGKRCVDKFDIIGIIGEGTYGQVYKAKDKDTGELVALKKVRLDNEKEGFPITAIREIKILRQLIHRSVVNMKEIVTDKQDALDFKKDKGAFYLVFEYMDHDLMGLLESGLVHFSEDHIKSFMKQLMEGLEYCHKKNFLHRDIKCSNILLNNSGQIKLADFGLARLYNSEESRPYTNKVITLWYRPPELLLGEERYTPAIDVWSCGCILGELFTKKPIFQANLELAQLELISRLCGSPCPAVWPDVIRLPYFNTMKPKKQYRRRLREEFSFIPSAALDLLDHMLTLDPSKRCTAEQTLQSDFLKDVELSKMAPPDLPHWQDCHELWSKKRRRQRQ
Sequence of CDK12-cycK complex by RBX1N8CUL4-DDB1 (P62877 whole entry, further chain): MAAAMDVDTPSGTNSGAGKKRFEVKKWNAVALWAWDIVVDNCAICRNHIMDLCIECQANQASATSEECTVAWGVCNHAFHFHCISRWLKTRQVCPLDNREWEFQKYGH
Sequence of CDK12-cycK complex by RBX1N8CUL4-DDB1 (O75909 1-267, further chain): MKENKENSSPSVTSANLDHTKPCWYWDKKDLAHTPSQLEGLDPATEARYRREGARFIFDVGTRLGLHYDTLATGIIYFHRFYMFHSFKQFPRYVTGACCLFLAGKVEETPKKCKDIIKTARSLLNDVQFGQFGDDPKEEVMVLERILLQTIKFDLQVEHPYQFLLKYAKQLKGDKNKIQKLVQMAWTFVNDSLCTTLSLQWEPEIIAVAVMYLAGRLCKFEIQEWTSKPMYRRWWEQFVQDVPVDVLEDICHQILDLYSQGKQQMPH
Sequence of CDK12-cycK complex by RBX1N8CUL4-DDB1 (Q13619 whole entry, further chain): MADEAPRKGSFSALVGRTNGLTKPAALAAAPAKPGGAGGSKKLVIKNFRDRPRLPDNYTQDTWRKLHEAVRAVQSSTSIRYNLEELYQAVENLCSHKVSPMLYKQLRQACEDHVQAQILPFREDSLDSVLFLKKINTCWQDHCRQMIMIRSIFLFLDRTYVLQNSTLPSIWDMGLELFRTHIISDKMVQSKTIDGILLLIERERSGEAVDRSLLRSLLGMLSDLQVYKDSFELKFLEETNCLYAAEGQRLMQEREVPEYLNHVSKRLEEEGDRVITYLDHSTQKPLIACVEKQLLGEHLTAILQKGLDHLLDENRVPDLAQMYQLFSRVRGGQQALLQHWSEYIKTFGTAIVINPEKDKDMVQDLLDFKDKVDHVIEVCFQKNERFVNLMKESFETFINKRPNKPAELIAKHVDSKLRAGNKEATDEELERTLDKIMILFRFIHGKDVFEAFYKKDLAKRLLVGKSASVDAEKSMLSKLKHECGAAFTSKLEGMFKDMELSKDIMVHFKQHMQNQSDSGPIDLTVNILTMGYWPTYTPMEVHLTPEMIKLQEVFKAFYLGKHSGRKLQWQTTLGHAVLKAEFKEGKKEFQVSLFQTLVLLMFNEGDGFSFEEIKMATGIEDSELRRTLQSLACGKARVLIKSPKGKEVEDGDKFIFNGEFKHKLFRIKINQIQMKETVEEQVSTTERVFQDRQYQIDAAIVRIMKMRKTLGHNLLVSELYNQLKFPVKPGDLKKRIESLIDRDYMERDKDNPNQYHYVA
Sequence of CDK12-cycK and DDB1 (Q9NYV4 713-1052 K965R): as the sequence (Q9NYV4 713-1052 K965R) above
Sequence of CDK12-cycK and DDB1 (O75909 1-267, further chain): as the sequence (O75909 1-267, further chain) above
Sequence of CDK12-cycK and DDB1 (Q16531 whole entry): as the sequence (Q16531 whole entry) above

Question: With `Nc1ncnc2c1ncn2[C@@H]1O[C@H](COP(=O)(O)OP(=O)(O)OP(=O)(O)O)[C@@H](O)[C@H]1O` [ATP] as the molecule, how does the “effect on CDK12-cycK interaction with DDB1 (TR-FRET signal)” value (“effect on CDK12-cycK interaction” for short) (CDK12-cycK and DDB1) read?
Answer: neither facilitated nor abrogated the interaction

Question: Which “cycK ubiquitination in vitro” value [1] does the source give for `CN1CC[C@H](c2c(O)cc(O)c3c(=O)cc(-c4ccccc4Cl)oc23)[C@H](O)C1` [Flavopiridol] here?
Answer: moderate cycK ubiquitination

Question: And the “degradation of the cycKeGFP reporter in cells” value ([2]; HEK293TCas9 cells, 1 μM compound, 2 hours)?
Answer: failed to degrade cycK in cells

Question: And the “effect on CDK12-cycK interaction” value (CDK12-cycK and DDB1)?
Answer: stimulated the binding of CDK12-cycK to DDB1

Question: `CC(C)C[C@@H](C=O)NC(=O)[C@H](CC(C)C)NC(=O)[C@H](CC(C)C)NC(=O)OCc1ccccc1` [MG132] (Cbz-Leu-Leu-Leu-aldehyde) was tested. Which “rescue of CR8-induced cycK degradation” value [3] did it give?
Answer: rescued

Question: What does the source list for `NS(=O)(=O)OC[C@@H]1C[C@@H](n2ccc3c(N[C@H]4CCc5ccccc54)ncnc32)C[C@@H]1O` [MLN4924]?
Answer: rescue of CR8-induced cycK degradation [3]: rescued; effect on cell viability (HEK293TCas9 cells): only minor effects on cell viability

Question: How did the “rescue of CR8-induced cycK degradation” value [3] turn out when `NS(=O)(=O)OC[C@H]1C[C@@H](Nc2ccnc3cc(-c4cccc(SC(F)(F)F)c4)nn23)[C@H](O)[C@@H]1O` [MLN7243] was run?
Answer: rescued

Question: Which “cycK ubiquitination in vitro” value [1] does the source give for `CC[C@H](CO)Nc1nc(NCc2ccccc2)c2ncn(C(C)C)c2n1` [Roscovitine] here?
Answer: less processive ubiquitination

Question: And the “degradation of the cycKeGFP reporter in cells” value [2]?
Answer: neither DRF053 nor roscovitine induced degradation

Question: Which “cycK ubiquitination in vitro” value [1] does the source give for `CN(C)C/C=C/C(=O)Nc1ccc(C(=O)N2CCC[C@@H](Nc3ncc(Cl)c(-c4c[nH]c5ccccc45)n3)C2)cc1` [THZ531] here?
Answer: diminished cycK ubiquitination in vitro below DMSO control levels

Question: What about the “effect on CDK12-cycK interaction” value (CDK12-cycK and DDB1) of the same molecule?
Answer: further decreased the TR-FRET signal

Question: With `NS(=O)(=O)c1ccc(S(=O)(=O)Nc2cccc3c(Cl)c[nH]c23)cc1` [indisulam] as the molecule, how does the “effect of sgRNAs targeting DCAF15 on drug-induced toxicity” value [4] read?
Answer: confer resistance

Question: Which “effect of sgRNAs targeting DCAF15 on drug-induced toxicity” value [4] does the source give for `O=C(NS(=O)(=O)c1ccc(Br)s1)c1ccc(Cl)cc1Cl` [tasisulam] here?
Answer: confer resistance
